Experimental data from PubChem BioAssay (NCI).
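1) Cells in 96-well plates. 2) Compound, 48 h, 5 concentrations. 3) Linear interpolation between surrounding doses. 4) Unreached endpoint = highest concentration. GI50: concentration for 50% inhibition of growth. The concentration for full growth arrest is given as TGI.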

Tests used:
Assay in all cases: inhibition of tumour cell growth, NCI panel, 48 h
DU-145 prostate = test system: DU-145 prostate
HOP-62 NSCLC = test system: HOP-62 NSCLC
HS 578T breast = test system: HS 578T breast
KM12 colon = test system: KM12 colon
NCI-H522 lung = test system: NCI-H522 lung
NCI/ADR-RES ovarian = test system: NCI/ADR-RES ovarian
PC-3 prostate = test system: PC-3 prostate
SW-620 colon = test system: SW-620 colon
TK-10 renal = test system: TK-10 renal
U251 CNS = test system: U251 CNS

In the case of Nc1n[nH]c2cc(F)c([C@@H]3Nc4c(F)cc5[nH]ncc5c4[C@H]4C5CCC(C5)[C@@H]34)cc12 (stereo not given in full), the GI50 (DU-145 prostate) is reported as 157 nM, the TGI (DU-145 prostate) is reported as 7.97 µM and the GI50 (HOP-62 NSCLC) is reported as 195 nM. The TGI (HOP-62 NSCLC) was 6.46 µM, the GI50 (HS 578T breast) was 117 nM and the TGI (HS 578T breast) was 2.95 µM. The GI50 (KM12 colon) was 129 nM, the TGI (KM12 colon) was 0.853 µM and the GI50 (NCI-H522 lung) was 93.2 nM. The TGI (NCI-H522 lung) was 2220 nM, the GI50 (NCI/ADR-RES ovarian) was 140 nM and the TGI (NCI/ADR-RES ovarian) was 5.67 µM. It also gave a GI50 (PC-3 prostate) of 149 nM, a TGI (PC-3 prostate) of 8.04 µM and a GI50 (SW-620 colon) of 141 nM. For the same compound, the TGI (SW-620 colon) was 6.72 µM, the GI50 (TK-10 renal) was 2270 nM and the TGI (TK-10 renal) was 27.2 µM. The GI50 (U251 CNS) was 127 nM and the TGI (U251 CNS) was 5.7 µM.
COc1ccc(OC)c(-c2nc3sc(C)cn3c2/C=C2\C(=O)N(C)c3ccccc32)c1 showed a GI50 (DU-145 prostate) of 29200 nM, a TGI (DU-145 prostate) of 81.8 µM and a GI50 (HOP-62 NSCLC) of 22500 nM. For the same compound, the TGI (HOP-62 NSCLC) was 61.4 µM, the GI50 (HS 578T breast) was 23600 nM and the TGI (HS 578T breast) was 70.4 µM. For the same compound, the GI50 (KM12 colon) was 21900 nM, the TGI (KM12 colon) was 68.5 µM and the GI50 (NCI-H522 lung) was 22000 nM. For the same compound, the TGI (NCI-H522 lung) was 59400 nM, the GI50 (NCI/ADR-RES ovarian) was 15700 nM and the TGI (NCI/ADR-RES ovarian) was 54.7 µM. It also gave a GI50 (PC-3 prostate) of 20900 nM, a TGI (PC-3 prostate) of over 100 µM and a GI50 (SW-620 colon) of 35600 nM. It also gave a TGI (SW-620 colon) of over 100 µM, a GI50 (TK-10 renal) of 48300 nM and a TGI (TK-10 renal) of over 100 µM. For the same compound, the GI50 (U251 CNS) was 22200 nM and the TGI (U251 CNS) was 59.5 µM.
For COC(=O)C[C@@H]1CC=CC(=O)/C1=C(O)/C=C/c1ccccc1, the GI50 (DU-145 prostate) was 695 nM, the TGI (DU-145 prostate) was 1.96 µM and the GI50 (HOP-62 NSCLC) was 560 nM. It also gave a TGI (HOP-62 NSCLC) of 1.86 µM, a GI50 (HS 578T breast) of 3490 nM and a TGI (HS 578T breast) of over 49.2 µM. It also gave a GI50 (KM12 colon) of 233 nM, a TGI (KM12 colon) of 0.705 µM and a GI50 (NCI-H522 lung) of 320 nM. The TGI (NCI-H522 lung) was 959 nM, the GI50 (NCI/ADR-RES ovarian) was 308 nM and the TGI (NCI/ADR-RES ovarian) was 1.97 µM. It also gave a GI50 (PC-3 prostate) of 856 nM, a TGI (PC-3 prostate) of 3.76 µM and a GI50 (SW-620 colon) of 338 nM. For the same compound, the TGI (SW-620 colon) was 1.33 µM, the GI50 (TK-10 renal) was 916 nM and the TGI (TK-10 renal) was 5.69 µM. For the same compound, the GI50 (U251 CNS) was 354 nM and the TGI (U251 CNS) was 1.28 µM.
Work on COc1ccc2cn3c4ccc(O)cc4[nH]c(=O)c3c2c1 yielded a GI50 (DU-145 prostate) of 298 nM, a TGI (DU-145 prostate) of 15.5 µM and a GI50 (HOP-62 NSCLC) of 86.4 nM. The TGI (HOP-62 NSCLC) was 17.3 µM, the GI50 (HS 578T breast) was 249 nM and the TGI (HS 578T breast) was 31.6 µM. It also gave a GI50 (KM12 colon) of 84.6 nM, a TGI (KM12 colon) of 14.9 µM and a GI50 (NCI-H522 lung) of 31 nM. The TGI (NCI-H522 lung) was 1050 nM, the GI50 (NCI/ADR-RES ovarian) was 67.5 nM and the TGI (NCI/ADR-RES ovarian) was 14.2 µM. It also gave a GI50 (PC-3 prostate) of 131 nM, a TGI (PC-3 prostate) of 16.9 µM and a GI50 (SW-620 colon) of 47 nM. For the same compound, the TGI (SW-620 colon) was 13.7 µM, the GI50 (TK-10 renal) was 2190 nM and the TGI (TK-10 renal) was 8.08 µM. For the same compound, the GI50 (U251 CNS) was 153 nM and the TGI (U251 CNS) was 12.4 µM.
CC(NNC(=S)N1CCN(c2ccccn2)CC1)c1cccc[n+]1[O-] (stereo not given) gave a TGI (DU-145 prostate) of over 100 µM, a TGI (HOP-62 NSCLC) of over 100 µM and a TGI (HS 578T breast) of over 100 µM. For the same compound, the TGI (KM12 colon) was over 100 µM, the TGI (NCI-H522 lung) was 15300 nM and the TGI (NCI/ADR-RES ovarian) was 36.5 µM. It also gave a TGI (PC-3 prostate) of over 100 µM, a TGI (SW-620 colon) of over 100 µM and a TGI (TK-10 renal) of over 100 µM. For the same compound, the TGI (U251 CNS) was over 100 µM.
COc1ccc2c(ccc3oc([N+](=O)[O-])cc32)c1 showed a GI50 (DU-145 prostate) of 191 nM, a TGI (DU-145 prostate) of 1.14 µM and a GI50 (HOP-62 NSCLC) of 412 nM. It also gave a TGI (HOP-62 NSCLC) of 2.48 µM, a GI50 (HS 578T breast) of 301 nM and a TGI (HS 578T breast) of 1.58 µM. It also gave a GI50 (KM12 colon) of 288 nM, a TGI (KM12 colon) of 1.21 µM and a GI50 (NCI-H522 lung) of 95.2 nM. For the same compound, the TGI (NCI-H522 lung) was 319 nM, the GI50 (NCI/ADR-RES ovarian) was 177 nM and the TGI (NCI/ADR-RES ovarian) was 1.05 µM. For the same compound, the GI50 (PC-3 prostate) was 305 nM, the TGI (PC-3 prostate) was 3.63 µM and the GI50 (SW-620 colon) was 178 nM. It also gave a TGI (SW-620 colon) of 10.8 µM, a GI50 (TK-10 renal) of 278 nM and a TGI (TK-10 renal) of 0.854 µM. The GI50 (U251 CNS) was 197 nM and the TGI (U251 CNS) was 0.578 µM.
For Cc1nc2sc(C(=O)Nc3cccc(Cl)c3C)c(N)c2cc1C(O)c1ccccc1 (stereo not given), the GI50 (DU-145 prostate) was 45.4 nM, the TGI (DU-145 prostate) was 8.5 µM and the GI50 (HOP-62 NSCLC) was 49.7 nM. The TGI (HOP-62 NSCLC) was 16.1 µM, the GI50 (HS 578T breast) was 23.9 nM and the TGI (HS 578T breast) was 0.497 µM. The GI50 (KM12 colon) was 37.2 nM, the TGI (KM12 colon) was 5.22 µM and the GI50 (NCI-H522 lung) was 27.8 nM. It also gave a TGI (NCI-H522 lung) of 1770 nM, a GI50 (NCI/ADR-RES ovarian) of 31.8 nM and a TGI (NCI/ADR-RES ovarian) of 1.64 µM. It also gave a GI50 (PC-3 prostate) of 43.9 nM, a TGI (PC-3 prostate) of 24.4 µM and a GI50 (SW-620 colon) of 33.1 nM. It also gave a TGI (SW-620 colon) of 15.4 µM, a GI50 (TK-10 renal) of 2040 nM and a TGI (TK-10 renal) of 25.6 µM. For the same compound, the GI50 (U251 CNS) was 39 nM and the TGI (U251 CNS) was 13.8 µM.
CCCCc1n(Cc2ccc3ccccc3n2)cc[n+]1Cc1ccc2ccccc2c1 was tested, and the GI50 (DU-145 prostate) was 1440 nM, the TGI (DU-145 prostate) was 7.98 µM and the GI50 (HOP-62 NSCLC) was 1720 nM. It also gave a TGI (HOP-62 NSCLC) of 5.25 µM, a GI50 (HS 578T breast) of 1330 nM and a TGI (HS 578T breast) of 4.07 µM. For the same compound, the GI50 (KM12 colon) was 715 nM, the TGI (KM12 colon) was 2.11 µM and the GI50 (NCI-H522 lung) was 580 nM. The TGI (NCI-H522 lung) was 2180 nM, the GI50 (NCI/ADR-RES ovarian) was 24200 nM and the TGI (NCI/ADR-RES ovarian) was over 100 µM. The GI50 (PC-3 prostate) was 786 nM, the TGI (PC-3 prostate) was 2.5 µM and the GI50 (SW-620 colon) was 1310 nM. The TGI (SW-620 colon) was 4.75 µM, the GI50 (TK-10 renal) was 1490 nM and the TGI (TK-10 renal) was 3.69 µM. It also gave a GI50 (U251 CNS) of 661 nM and a TGI (U251 CNS) of 2.06 µM.
In the case of COc1ccc(/C=N/C2=NNC(C)(c3ccccc3O)N2C(Cc2c[nH]c3ccccc23)C(=O)O)cc1 (stereo not given), the GI50 (DU-145 prostate) is reported as 4130 nM, the TGI (DU-145 prostate) is reported as 17.8 µM and the GI50 (HOP-62 NSCLC) is reported as 2580 nM. The TGI (HOP-62 NSCLC) was 11.9 µM, the GI50 (HS 578T breast) was 2830 nM and the TGI (HS 578T breast) was 21.7 µM. It also gave a GI50 (KM12 colon) of 2600 nM, a TGI (KM12 colon) of 10.2 µM and a GI50 (NCI-H522 lung) of 2490 nM. It also gave a TGI (NCI-H522 lung) of 10000 nM, a GI50 (NCI/ADR-RES ovarian) of 2760 nM and a TGI (NCI/ADR-RES ovarian) of 14 µM. It also gave a GI50 (PC-3 prostate) of 2680 nM, a TGI (PC-3 prostate) of 11.6 µM and a GI50 (SW-620 colon) of 3170 nM. It also gave a TGI (SW-620 colon) of 12.1 µM, a GI50 (TK-10 renal) of 5010 nM and a TGI (TK-10 renal) of 10.9 µM. It also gave a GI50 (U251 CNS) of 3440 nM and a TGI (U251 CNS) of 11.6 µM.
